The record followed here is US11312790B2, “Production method for pentosan polysulfate” (OJI HOLDINGS CORPORATION, priority 2016, dated 2022).

One experiment has as its system factor Xa. Put plainly: Measurement of anti-Xa activity using Test Team Heparin S. Conditions: Test Team Heparin S kit. It counts as biochemical. An excerpt:
In general, anticoagulant activity is based on the activity of inhibiting blood coagulation factors. That is, when anticoagulant activity is high, a blood coagulation reaction is inhibited. Blood coagulation factors refer to the action system of a series of molecules in a living body for coagulating blood when bleeding etc. Successive activation of a large number of blood coagulation factors agglutinates fibrin, and stops bleeding in the bleeding area. Representative examples of blood coagulation factors include factor Xa and factor IIa. Blood coagulation can be inhibited by inhibiting the activity of these factors. Here, the factor Xa inhibitory activity (anti-Xa activity) can be measured using Test Team (registered trademark) Heparin S (manufactured by Sekisui Medical Co., Ltd.). Measurement of Anti-Xa Activity The anti-Xa activity of pentosan polysulfate sodium was measured using Test Team (registered trademark) Heparin S (manufactured by Sekisui Medical Co., Ltd.).

For a further experiment, the target named is T1, factor IIa (Homo sapiens, UniProt P00734).
T1 construct: purchased Hyphen BioMed Biophen heparin anti-IIa
Nature of the experiment: Measurement of anti-IIa activity using Biophen heparin anti-IIa. To be noted: Biophen heparin anti-IIa kit. It counts as biochemical. An excerpt:
In general, anticoagulant activity is based on the activity of inhibiting blood coagulation factors. That is, when anticoagulant activity is high, a blood coagulation reaction is inhibited. Blood coagulation factors refer to the action system of a series of molecules in a living body for coagulating blood when bleeding etc. Successive activation of a large number of blood coagulation factors agglutinates fibrin, and stops bleeding in the bleeding area. Representative examples of blood coagulation factors include factor Xa and factor IIa. Blood coagulation can be inhibited by inhibiting the activity of these factors. The factor IIa inhibitory activity (anti-IIa activity) can be measured using Biophen heparin anti-IIa (manufactured by Hyphen BioMed). Measurement of Anti-IIa Activity The anti-IIa activity of pentosan polysulfate sodium was measured using Biophen heparin anti-IIa (manufactured by Hyphen BioMed).

As to pentosan polysulfate sodium [Example 3], the Anti-Xa activity in the experiment on factor Xa came out at 0.2439 IU/mg. At factor IIa, the Anti-IIa activity was found to be 0.0676 IU/mg.

In the experiment with factor Xa, pentosan polysulfate sodium [Example 5] had an Anti-Xa activity of 0.2297 IU/mg. In addition, the Anti-IIa activity at factor IIa is given as 0.0976 IU/mg.

Regarding pentosan polysulfate sodium [Example 2], the Anti-Xa activity with factor Xa came to 0.2588 IU/mg. Further, the Anti-IIa activity on factor IIa came out at 0.1845 IU/mg.

In the experiment on factor Xa, pentosan polysulfate sodium [Example 4] had an Anti-Xa activity of 0.2419 IU/mg. This substance displayed an Anti-IIa activity at factor IIa of 0.0934 IU/mg.

In turn, “pentosan polysulfate sodium [Comparative Example 1, reference compound]” came in with an Anti-Xa activity in the experiment on factor Xa of 0.0840 IU/mg. The Anti-IIa activity at factor IIa is on record as 0.0221 IU/mg.

With pentosan polysulfate sodium [Example 1], the Anti-Xa activity in the experiment on factor Xa is 0.2047 IU/mg. Also, the Anti-IIa activity at factor IIa was determined as 0.1405 IU/mg.
